Measurements as given in publication PMC11641184, “Coumarin Derivative Hybrids: Novel Dual Inhibitors Targeting Acetylcholinesterase and Monoamine Oxidases for Alzheimer’s Therapy” (International Journal of Molecular Sciences, 2024).

How the values were obtained:
human recombinant AChE = biological target: T1, human recombinant AChE (Homo sapiens, UniProt P22303); experiment: biochemical; settings: for inhibition at 10 µM: read-out: hAChE % inhibition at 10 μM ± SD, 10 μM inhibitor, human recombinant AChE, n = 3
T1 construct: purchased Aldrich (Milan, Italy)
T1 sequence (P22303 32-614): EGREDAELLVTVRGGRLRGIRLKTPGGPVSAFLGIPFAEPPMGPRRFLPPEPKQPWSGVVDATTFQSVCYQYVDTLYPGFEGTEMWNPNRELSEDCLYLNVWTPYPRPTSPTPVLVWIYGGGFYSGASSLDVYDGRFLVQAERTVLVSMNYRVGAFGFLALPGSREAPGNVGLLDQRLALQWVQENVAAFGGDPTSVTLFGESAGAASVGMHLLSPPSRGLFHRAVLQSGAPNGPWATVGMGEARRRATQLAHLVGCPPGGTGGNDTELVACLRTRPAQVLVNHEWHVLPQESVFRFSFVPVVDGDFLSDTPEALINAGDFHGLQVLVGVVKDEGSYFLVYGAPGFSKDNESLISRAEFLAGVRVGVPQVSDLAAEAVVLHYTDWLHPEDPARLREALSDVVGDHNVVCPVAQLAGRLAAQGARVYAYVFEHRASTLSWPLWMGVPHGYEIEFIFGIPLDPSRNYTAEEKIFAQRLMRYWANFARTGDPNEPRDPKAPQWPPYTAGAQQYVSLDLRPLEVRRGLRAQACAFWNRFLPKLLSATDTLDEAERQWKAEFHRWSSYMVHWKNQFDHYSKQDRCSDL
Procedure: (§1) All enzymes and chemicals were purchased from Aldrich (Milan, Italy). Inhibition assays were performed in 96-well plates (Greiner Bio-One GmbH, Frickenhausen, Germany) using an Infinite M1000 plate reader (Tecan, Milan, Italy). Incubations were performed in triplicate, and final inhibition values were determined as mean ± SEM (n = 3).
The inhibition of human recombinant AChE was determined as already reported by applying Ellman’s spectrophotometric method.

hMAO-A = biological target: T2, hMAO-A (Homo sapiens, UniProt P21397); experiment: biochemical; settings: read-out: hMAO-A % inhibition at 10 μM ± SD; 10 μM inhibitor, human recombinant MAO-A, n = 3
T2 construct: purchased Aldrich (Milan, Italy)
T2 sequence (P21397 1-527): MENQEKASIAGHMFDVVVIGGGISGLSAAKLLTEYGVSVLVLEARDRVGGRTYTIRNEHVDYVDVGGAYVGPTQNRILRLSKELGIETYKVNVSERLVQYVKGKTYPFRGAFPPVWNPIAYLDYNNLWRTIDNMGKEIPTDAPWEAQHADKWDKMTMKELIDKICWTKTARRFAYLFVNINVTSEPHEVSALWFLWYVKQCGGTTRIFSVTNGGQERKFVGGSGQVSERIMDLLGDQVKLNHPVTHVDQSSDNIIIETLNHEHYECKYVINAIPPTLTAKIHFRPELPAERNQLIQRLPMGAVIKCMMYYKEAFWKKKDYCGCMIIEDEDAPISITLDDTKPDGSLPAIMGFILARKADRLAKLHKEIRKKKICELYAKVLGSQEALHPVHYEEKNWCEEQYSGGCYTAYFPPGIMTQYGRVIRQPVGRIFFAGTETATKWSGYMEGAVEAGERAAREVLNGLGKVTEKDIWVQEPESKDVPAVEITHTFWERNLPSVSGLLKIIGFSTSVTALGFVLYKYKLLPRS
Procedure: as §1
(§2) Incubations were set at 37 °C in phosphate buffer with a pH of 7.4 for 20 min before the addition of enzyme, and the fluorescence was measured after additional incubation of 30 min.

hMAO-B = biological target: T3, hMAO-B (Homo sapiens, UniProt P27338); experiment: biochemical; settings: human recombinant MAO-B; for IC50: kynuramine, 37 °C, pH 7.4, n = 3, read-out: hMAO-B IC50 ± SEM; for inhibition at 10 µM: read-out: hMAO-B % inhibition at 10 μM ± SD, 10 μM inhibitor, n = 3
T3 construct: purchased Aldrich (Milan, Italy)
T3 sequence (P27338 1-520): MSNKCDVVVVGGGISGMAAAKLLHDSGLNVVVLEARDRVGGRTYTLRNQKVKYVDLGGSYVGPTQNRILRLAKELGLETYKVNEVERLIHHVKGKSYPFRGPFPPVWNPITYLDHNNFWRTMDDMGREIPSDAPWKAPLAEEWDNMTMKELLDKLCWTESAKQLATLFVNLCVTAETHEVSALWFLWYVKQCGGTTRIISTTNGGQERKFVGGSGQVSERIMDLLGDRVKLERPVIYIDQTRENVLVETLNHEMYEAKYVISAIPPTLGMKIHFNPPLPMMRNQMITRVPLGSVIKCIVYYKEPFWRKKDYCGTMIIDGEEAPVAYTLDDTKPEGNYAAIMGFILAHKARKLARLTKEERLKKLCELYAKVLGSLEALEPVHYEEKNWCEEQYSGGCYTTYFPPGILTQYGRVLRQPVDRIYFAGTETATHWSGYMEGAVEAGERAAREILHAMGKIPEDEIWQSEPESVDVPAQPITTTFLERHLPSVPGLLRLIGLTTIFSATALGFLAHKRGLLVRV
Procedure: as §1, §2

[1] = in silico and in vitro studies; cited from earlier work
hAChE = system: hAChE; set-up: method as in PMID 10213168; settings: read-out: hAChE IC50 in vitro; cited from earlier work

Compound	inhibition at 10 µM (human recombinant AChE) [%]	inhibition at 10 µM (hMAO-A) [%]	IC50 (hMAO-B) [nM]	inhibition at 10 µM (hMAO-B) [%]	pharmacokinetic properties [1]	IC50 (human recombinant AChE) [nM]	IC50 (hAChE) [nM]
COc1ccccc1N1CCN(CCCOc2cc(C)cc3oc(=O)cc(C)c23)CC1 [Compound 1, 4,7-dimethyl-5-{3-[4-(2-methoxyphenyl)piperazin-1-yl]propoxy}coumarin]	61 ± 1	44 ± 4	2180 ± 480	–	–	–	–
COc1ccccc1N1CCN(CCCCOc2cc(C)cc3oc(=O)cc(C)c23)CC1 [Compound 2, 4,7-dimethyl-5-[4-(4-(2-methoxyphenyl)piperazin-1-yl)butoxy]coumarin]	61 ± 4	19 ± 1	–	33 ± 2	–	–	–
COc1cccc(N2CCN(CCCOc3cc(C)cc4oc(=O)cc(C)c34)CC2)c1 [Compound 3, 4,7-dimethyl-5-[3-(4-(3-methoxyphenyl)piperazin-1-yl)propoxy]coumarin]	53 ± 2	39 ± 5	1880 ± 450	–	excellent pharmacokinetic properties	–	–
COc1cccc(N2CCN(CCCCOc3cc(C)cc4oc(=O)cc(C)c34)CC2)c1 [Compound 4, 4,7-dimethyl-5-[4-(4-(3-methoxyphenyl)piperazin-1-yl)butoxy]coumarin]	56 ± 1	38 ± 4	3180 ± 630	–	–	–	–
COc1ccccc1N1CCN(CCCOc2c(C(C)=O)c(C)cc3oc(=O)cc(C)c23)CC1 [Compound 5, 6-acetyl-4,7-dimethyl-5-[3-(4-(2-methoxyphenyl)piperazin-1-yl)propoxy]coumarin]	50 ± 6	22 ± 3	–	34 ± 2	–	–	–
COc1ccccc1N1CCN(CCCCOc2c(C(C)=O)c(C)cc3oc(=O)cc(C)c23)CC1 [Compound 6, 6-acetyl-4,7-dimethyl-5-[4-(4-(2-methoxyphenyl)piperazin-1-yl)butoxy]coumarin]	48 ± 1	30 ± 5	–	43 ± 3	–	–	–
COc1cccc(N2CCN(CCCOc3c(C(C)=O)c(C)cc4oc(=O)cc(C)c34)CC2)c1 [Compound 7, 6-acetyl-4,7-dimethyl-5-[3-(4-(3-methoxyphenyl)piperazin-1-yl)propoxy]coumarin]	46 ± 3	39 ± 3	–	35 ± 3	–	–	–
COc1cccc(N2CCN(CCCCOc3c(C(C)=O)c(C)cc4oc(=O)cc(C)c34)CC2)c1 [Compound 8, 6-acetyl-4,7-dimethyl-5-[4-(4-(3-methoxyphenyl)piperazin-1-yl)butoxy]coumarin]	54 ± 8	55 ± 2	–	26 ± 2	–	–	–
COc1ccccc1N1CCN(CCCOc2ccc3c(C)cc(=O)oc3c2C(C)=O)CC1 [Compound 9, 8-acetyl-7-{3-[4-(2-methoxyphenyl)piperazin-1-yl]propoxy}-4-methylchromen-2-one]	59 ± 7	32 ± 4	4760 ± 340	–	–	–	–
COc1ccccc1N1CCN(CCCCOc2ccc3c(C)cc(=O)oc3c2C(C)=O)CC1 [Compound 10, 8-acetyl-7-{4-[4-(2-methoxyphenyl)piperazin-1-yl]butoxy}-4-methylchromen-2-one]	–	52 ± 4	–	24 ± 1	excellent pharmacokinetic properties	1520 ± 660	–
COc1cc2oc(=O)c(C)c(C)c2cc1OCCCN1CCN(c2ccccc2OC)CC1 [Ensaculin]	–	–	–	–	–	–	360
